# Laboratory results taken from ChEMBL document CHEMBL1201862, “PubChem BioAssay data set” (2004).
#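 Briefly, cells in 96-well plates were exposed to five compound concentrations for 48 h, and endpoints were estimated by linear interpolation. Abbreviation: GI50, concentration required for 50% inhibition of growth.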 The source made the active and inactive calls. No stated cut-off is given here; in the data, active = GI50 up to about 1.1 µM and inactive = higher.
# How the values were obtained:
# Assay in all cases: inhibition of tumour cell growth, NCI panel, 48 h
# COLO 205 = tested on: COLO 205
# SK-OV-3 = tested on: SK-OV-3
# 786-0 = tested on: 786-0
# OVCAR-5 = tested on: OVCAR-5
# SF-268 = tested on: SF-268
# HCT-116 = tested on: HCT-116
# SR = tested on: SR
# UACC-257 = tested on: UACC-257
# NCI/ADR-RES = tested on: NCI/ADR-RES
# MDA-MB-231 = tested on: MDA-MB-231
# HOP-92 = tested on: HOP-92
# HL-60 = tested on: HL-60
# A549 = tested on: A549
# A498 = tested on: A498
# CCRF-CEM = tested on: CCRF-CEM
# NCI-H23 = tested on: NCI-H23
# SK-MEL-5 = tested on: SK-MEL-5
# HCT-15 = tested on: HCT-15
# TK-10 = tested on: TK-10
# KM12 = tested on: KM12
Compound,GI50 (COLO 205),GI50 (SK-OV-3),GI50 (786-0),GI50 (OVCAR-5),GI50 (SF-268),GI50 (HCT-116),GI50 (SR),GI50 (UACC-257),GI50 (NCI/ADR-RES),GI50 (MDA-MB-231),GI50 (HOP-92),GI50 (HL-60),GI50 (A549),GI50 (A498),GI50 (CCRF-CEM),GI50 (NCI-H23),GI50 (SK-MEL-5),GI50 (HCT-15) [µM],GI50 (TK-10),GI50 (KM12)
CC1c2cc(c3c(c2O)CN([C@@H](C)C2CCCCC2)CO3)C(C)c2cc(c3c(c2O)CN([C@@H](C)C2CCCCC2)CO3)C(C)c2cc(c3c(c2O)CN([C@@H](C)C2CCCCC2)CO3)C(C)c2cc1c1c(c2O)CN([C@@H](C)C2CCCCC2)CO1 (stereo not given in full),1.36 µM (inactive),1.48 µM (inactive),1.13 µM (inactive),1.78 µM (inactive),1.33 µM (inactive),1.06 µM (active),0.197 µM (active),1.66 µM (inactive),1.27 µM (inactive),1.31 µM (inactive),1.45 µM (inactive),0.152 µM (active),1.84 µM (inactive),2.06 µM (inactive),0.34 µM (active),1.5 µM (inactive),1.84 µM (inactive),1.51,1.73 µM (inactive),0.838 µM (active)
CCOC(=O)C(C/C=C/CO)N(C)C(=O)OC(C)(C)C (stereo not given),> 100 µM (inactive),> 100 µM (inactive),> 100 µM (inactive),> 100 µM (inactive),92.9 µM (inactive),> 100 µM (inactive),94.8 µM (inactive),> 100 µM (inactive),> 100 µM (inactive),> 100 µM (inactive),> 100 µM (inactive),> 100 µM (inactive),> 100 µM (inactive),> 100 µM (inactive),28.1 µM (inactive),> 100 µM (inactive),> 100 µM (inactive),> 100,> 100 µM (inactive),> 100 µM (inactive)
CCN(CC)CCCNc1ncc(C)c2c1c1ccc3c(O)cccc3c1n2C,5.52 µM (inactive),4.9 µM (inactive),0.789 µM (active),5.57 µM (inactive),2.5 µM (inactive),1.05 µM (active),0.282 µM (active),16.3 µM (inactive),2.81 µM (inactive),1.57 µM (inactive),9.16 µM (inactive),0.603 µM (active),0.389 µM (active),13.6 µM (inactive),0.392 µM (active),1.8 µM (inactive),6.76 µM (inactive),2.74,10.5 µM (inactive),1.52 µM (inactive)
Cc1nc2ccccc2n1CCc1nc2ccccc2[nH]1,> 100 µM (inactive),> 100 µM (inactive),> 100 µM (inactive),> 100 µM (inactive),> 100 µM (inactive),> 100 µM (inactive),> 100 µM (inactive),> 100 µM (inactive),> 100 µM (inactive),> 100 µM (inactive),> 100 µM (inactive),> 100 µM (inactive),> 100 µM (inactive),> 100 µM (inactive),> 100 µM (inactive),> 100 µM (inactive),> 100 µM (inactive),> 100,> 100 µM (inactive),> 100 µM (inactive)
C[C@]12CCC3c4ccc(O)cc4CC[C@H]3C1CC(=O)NC2=O (stereo not given in full),> 10 µM (inactive),> 10 µM (inactive),> 10 µM (inactive),> 10 µM (inactive),> 10 µM (inactive),> 10 µM (inactive),> 10 µM (inactive),> 10 µM (inactive),> 10 µM (inactive),> 10 µM (inactive),> 10 µM (inactive),> 10 µM (inactive),> 10 µM (inactive),> 10 µM (inactive),> 10 µM (inactive),> 10 µM (inactive),> 10 µM (inactive),> 10,> 10 µM (inactive),> 10 µM (inactive)
CCCCC(=O)/C=c1/cc(C)[nH]c2cccc3cnn1c32,> 100 µM (inactive),> 100 µM (inactive),> 100 µM (inactive),> 100 µM (inactive),> 100 µM (inactive),> 100 µM (inactive),48 µM (inactive),> 100 µM (inactive),> 100 µM (inactive),> 100 µM (inactive),68.9 µM (inactive),> 100 µM (inactive),> 100 µM (inactive),> 100 µM (inactive),> 100 µM (inactive),> 100 µM (inactive),> 100 µM (inactive),> 100,> 100 µM (inactive),> 100 µM (inactive)
CCOC(=O)C(NC(C)=O)(Nc1ccc(S(N)(=O)=O)cc1)C(F)(F)F (stereo not given),> 100 µM (inactive),> 100 µM (inactive),> 100 µM (inactive),> 100 µM (inactive),> 100 µM (inactive),> 100 µM (inactive),> 100 µM (inactive),> 100 µM (inactive),> 100 µM (inactive),> 100 µM (inactive),> 100 µM (inactive),> 100 µM (inactive),> 100 µM (inactive),> 100 µM (inactive),> 100 µM (inactive),> 100 µM (inactive),> 100 µM (inactive),> 100,> 100 µM (inactive),3.58 µM (inactive)
